Measured values from patent publication US8653099B2, “Cold menthol receptor antagonists” (Janssen Pharmaceutica, priority 2008, dated 2014).
pIC50: −log10 of the molar value. Several values for one entry are separate records, joined by “and”; a condition that tells them apart may be missing. Identical values can stand only once.

Assays:
canine TRPM8 = biological target: T1, canine TRPM8 (Canis lupus familiaris, UniProt Q1A7N1); assay: In vitro canine TRPM8 functional assay (icilin-induced Ca2+ fluorescence, FLIPR/FDSS); assay type: cell-based; conditions: for inhibition at 0.5 µM: HEK293, 0.5 μM compound; for pIC50: HEK293 cells stably expressing canine TRPM8, icilin at approx. 80% maximal response, eight-point dose-response; for inhibition at 1 µM: HEK293, 1 μM compound; for inhibition at 0.2 µM: HEK293, 0.2 μM compound
T1 construct: expressed in transfected cells
Procedure: The functional activity of compounds of the formula (I) was determined by measuring changes in intracellular calcium concentration using a Ca^2+-sensitive fluorescent dye. The changes in fluorescent signal were monitored by a fluorescence plate reader, either a FLIPR™ (Molecular Devices) or FDSS (Hamamatsu).
HEK293 cells stably expressing canine TRPM8 were routinely grown as monolayers in Dulbecco's minimum essential medium supplemented with 10% FBS, 2 mM L-glutamine, 100 units/mL penicillin, 100 ug/mL streptomycin and 400 μg/mL G418. Cells were maintained in 5% CO2 at 37° C. At 24 hrs prior to assay, cells were seeded in black wall, clear-base poly-D-lysine coated 384-well plates (BD Biosciences, NJ, USA) at a density of 5,000 cells per well in culture medium and grown overnight in 5% CO2 at 37° C. On assay day, growth media was removed and cells were loaded with Calcium 3 Dye (Molecular Devices) for 35 min at 37° C., under 5% CO2 and then for 25 min at room temperature and atmosphere. Subsequently, cells were tested for agonist-induced increases in intracellular Ca^2+ levels using FLIPR™ or FDSS. Cells were challenged with compounds of the formula (I) (at varying concentrations) and intracellular Ca^2+ was measured for 5 min prior to the addition of icilin to all wells to achieve a final concentration that produces approximately an 80% maximal response.
Maximal fluorescence intensity (FI) achieved upon addition of icilin was exported from the FLIPR or FDSS software and further analyzed using GraphPad Prism 3.02 (Graph Pad Software Inc., CA, U.S.A.). Basal FI was subtracted prior to normalizing data to percent of maximal response. Curves were generated using the average of quadruplicate wells for each data point, were analyzed using nonlinear regression of either sigmoidal dose response or sigmoidal dose response (variable slope). Finally, the EC50 and IC50 values were calculated with the best-fit dose curve determined by GraphPad Prism.

Sprague-Dawley rats = assay: CFA-induced paw radiant heat hypersensitivity; assay type: in vivo; conditions: rat, 30 mg/kg PO, 24 h after intraplantar CFA, radiant heat withdrawal latency
Procedure: Intraplantar injection of complete Freund's adjuvant (CFA) in rodents results in a long-lasting inflammatory reaction, characterized by a pronounced hypersensitivity to both thermal and mechanical stimuli. This hypersensitivity peaks between 24-72 hours following injection and can last for several weeks. To assess whether test compounds of the formula (I) reverse established hypersensitivity, a 100 μL intraplantar injection of CFA (suspended in a 1:1 emulsion of saline and heat-killed Mycobacterium tuberculosis in mineral oil) can be injected into a single hind paw of Sprague-Dawley rats (typically males ranging from 150-350 g). […]
Each rat is placed in a test chamber on a warm glass surface and allowed to acclimate for approximately 10 minutes. […] An initial (baseline) response latency to the thermal stimulus is recorded for each animal prior to the injection of CFA. Twenty-four hours following intraplantar CFA injection, the response latency of the animal to the thermal stimulus is then re-evaluated and compared to the animal's baseline response time. […] Post-compound treatment withdrawal latencies are assessed at fixed time intervals, typically 30, 60 and 120 minutes. The percent reversal (% R) of hypersenstivitiy is calculated according to the following formula: % Reversal=(Treatment Response−CFA Response)/(Baseline Response−CFA Response)×100.

[1] = HEK293 canine TRPM8, icilin challenge

T1 sequence (Q1A7N1 1-1104): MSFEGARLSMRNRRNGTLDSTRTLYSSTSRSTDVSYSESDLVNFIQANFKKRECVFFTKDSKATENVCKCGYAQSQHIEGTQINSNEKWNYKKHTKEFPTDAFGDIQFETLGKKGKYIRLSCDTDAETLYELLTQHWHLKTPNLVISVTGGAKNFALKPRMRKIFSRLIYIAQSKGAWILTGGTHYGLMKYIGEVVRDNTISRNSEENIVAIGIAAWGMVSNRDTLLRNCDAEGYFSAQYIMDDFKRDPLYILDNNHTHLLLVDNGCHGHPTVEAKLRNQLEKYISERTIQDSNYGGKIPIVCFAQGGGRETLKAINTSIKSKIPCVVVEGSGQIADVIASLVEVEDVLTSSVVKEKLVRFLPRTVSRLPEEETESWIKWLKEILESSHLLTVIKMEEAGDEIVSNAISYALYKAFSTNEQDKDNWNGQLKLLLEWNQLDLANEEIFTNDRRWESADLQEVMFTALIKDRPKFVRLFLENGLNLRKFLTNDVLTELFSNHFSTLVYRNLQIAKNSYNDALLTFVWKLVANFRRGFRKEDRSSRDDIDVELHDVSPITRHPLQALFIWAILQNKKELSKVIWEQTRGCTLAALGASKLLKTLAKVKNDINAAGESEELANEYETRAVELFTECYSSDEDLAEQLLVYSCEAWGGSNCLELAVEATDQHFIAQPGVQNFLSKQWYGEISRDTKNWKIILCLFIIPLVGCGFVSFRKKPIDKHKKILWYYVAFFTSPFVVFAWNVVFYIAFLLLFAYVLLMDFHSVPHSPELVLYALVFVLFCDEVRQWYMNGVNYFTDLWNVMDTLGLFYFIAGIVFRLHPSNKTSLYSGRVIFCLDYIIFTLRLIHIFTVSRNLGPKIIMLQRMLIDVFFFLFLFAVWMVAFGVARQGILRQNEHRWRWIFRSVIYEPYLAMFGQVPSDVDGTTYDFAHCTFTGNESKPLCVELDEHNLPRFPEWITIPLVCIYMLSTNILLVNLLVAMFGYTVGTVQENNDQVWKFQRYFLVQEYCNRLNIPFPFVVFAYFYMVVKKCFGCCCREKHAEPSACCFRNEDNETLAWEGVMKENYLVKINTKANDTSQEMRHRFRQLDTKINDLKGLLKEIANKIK

Row | inhibition at 0.5 µM (canine TRPM8; [1]) [%] | pIC50 (canine TRPM8) | Compound | other results
1 | 98.3 | 6.79 | O=C(Nc1cccc2cn[nH]c12)C(Nc1ccccc1)c1ccc(C(F)(F)F)cc1 (stereo not shown) [Cpd 28] | –
2 | 101 | 6.58 | O=C(Nc1cccc2cnccc12)C(Nc1cccc(Cl)c1)c1ccc(C(F)(F)F)cc1 (stereo not shown) [Cpd 12] | –
3 | 83 | 7.04 | O=C(Nc1cccc2ncccc12)C(Nc1c(F)cccc1F)c1ccc(Cl)cc1 (stereo not shown) [Cpd 49] | –
4 | 79.7 | 6.23 | O=C(Nc1cccc2cnccc12)C(c1ccc(C(F)(F)F)cc1)N1CCCc2ccccc21 (stereo not shown) [Cpd 19] | –
5 | – | 7.45 | CC(C)(C)c1ccc(C(Nc2ccccc2)C(=O)Nc2cccc3cnccc23)cc1 (stereo not shown) [Cpd 1] | inhibition at 1 µM (canine TRPM8; [1]): 103%
6 | 98 | 7.03 | O=C(Nc1cccc2cnccc12)C(Nc1c(F)cccc1F)c1ccc(Cl)cc1 (stereo not shown) [Cpd 48] | –
7 | 101 | 7.07 | O=C(Nc1cccc2[nH]ncc12)C(Nc1ccccc1)c1ccc(C(F)(F)F)cc1 (stereo not shown) [Cpd 27] | –
8 | 87 | 6.56 | O=C(Nc1cccc2cnccc12)C(Nc1cccc(F)c1F)c1ccc(Cl)cc1 (stereo not shown) [Cpd 51] | –
9 | 104 | 7.14 and 7.54 | O=C(Nc1cccc2cnccc12)C(Nc1ccccc1)c1ccc(C(F)(F)F)cc1 (stereo not shown) [Cpd 4, N-Isoquinolin-5-yl-2-phenylamino-2-(4-trifluoromethyl-phenyl)-acetamide] | inhibition at 1 µM (canine TRPM8; [1]): 102%
10 | 101 | 6.63 | CC(C)(C)c1ccc(C(Nc2ccccc2)C(=O)Nc2cccc3cn[nH]c23)cc1 (stereo not shown) [Cpd 20] | –
11 | 86.9 | 6.31 | O=C(Nc1cccc2cnccc12)C(Nc1ccc(Cl)cc1)c1ccc(C(F)(F)F)cc1 (stereo not shown) [Cpd 13] | –
12 | 85.1 | 6.36 | O=C(Nc1cccc2cccnc12)C(Nc1ccccc1)c1ccc(C(F)(F)F)cc1 (stereo not shown) [Cpd 29] | –
13 | – | 7.19 | O=C(Nc1cccc2cnccc12)C(Nc1cc(F)ccc1F)c1ccc(Cl)cc1 (stereo not shown) [Cpd 53] | inhibition at 0.2 µM (canine TRPM8; [1]): 90%
14 | 94 | 6.66 | O=C(Nc1cccc2[nH]ccc12)C(Nc1cccc(F)c1)c1ccc(C(F)(F)F)cc1 (stereo not shown) [Cpd 37] | –
15 | – | 6.93 | CC(C)(C)c1ccc(C(Nc2ccccc2)C(=O)Nc2cccc3[nH]ncc23)cc1 (stereo not shown) [Cpd 5] | inhibition at 1 µM (canine TRPM8; [1]): 100%
16 | 95 | 6.92 | O=C(Nc1cccc2cnccc12)C(Nc1cccc(F)c1)c1ccc(C(F)(F)F)cc1 (stereo not shown) [Cpd 36] | –
17 | – | 6.80 | O=C(NC1CCc2ccccc21)C(Nc1ccccc1)c1ccc(C(F)(F)F)cc1 (stereo not shown) [Cpd 10, N-Indan-1-yl-2-phenylamino-2-(4-trifluoromethyl-phenyl)-acetamide] | inhibition at 1 µM (canine TRPM8; [1]): 100%
18 | 96 | 6.96 | O=C(Nc1cccc2cnccc12)C(Nc1ccccc1)c1cccc(C(F)(F)F)c1 (stereo not shown) [Cpd 42] | –
19 | 98 | 7.01 | O=C(Nc1cccc2cnccc12)C(Nc1ccccc1F)c1ccc(Cl)cc1 (stereo not shown) [Cpd 44] | –
20 | 80 | 6.66 | O=C(Nc1cccc2ncccc12)C(Nc1cccc(F)c1F)c1ccc(Cl)cc1 (stereo not shown) [Cpd 52] | –

Row | inhibition at 0.5 µM (canine TRPM8; [1]) [%] | pIC50 (canine TRPM8) | Compound | other results
21 | 84 | 6.65 | O=C(Nc1cccc2[nH]ccc12)C(Nc1ccc(F)cc1)c1ccc(C(F)(F)F)cc1 (stereo not shown) [Cpd 34] | –
22 | 96 | 6.59 | O=C(Nc1cccc2cnccc12)C(Nc1ccccc1)c1ccc(C(F)(F)F)cc1 (single isomer, unassigned) [Cpd 30, N-Isoquinolin-5-yl-2-phenylamino-2-(4-trifluoromethyl-phenyl)-acetamide] | –
23 | – | 6.97 | O=C(Nc1cccc2ncccc12)C(Nc1cc(F)ccc1F)c1ccc(Cl)cc1 (stereo not shown) [Cpd 54] | inhibition at 0.2 µM (canine TRPM8; [1]): 77%
24 | 98 | 6.94 | O=C(Nc1cccc2cnccc12)C(Nc1ccc(F)cc1F)c1ccc(C(F)(F)F)cc1 (stereo not shown) [Cpd 50] | –
25 | 84 | 6.74 | O=C(Nc1cccc2[nH]ccc12)C(Nc1ccccc1)c1ccc(Cl)cc1 (stereo not shown) [Cpd 38] | –
26 | 98 | 7.09 | O=C(Nc1cccc2cnccc12)C(Nc1ccccc1F)c1ccc(Br)cc1 (stereo not shown) [Cpd 41] | –
27 | – | 6.89 | O=C(Nc1cccc2cnccc12)C(Sc1ccccc1)c1ccc(C(F)(F)F)cc1 (stereo not shown) [Cpd 56, N-(Isoquinolin-5-yl)-2-(phenylthio)-2-(4-(trifluoromethyl)phenyl)acetamide] | –
28 | 93 | 6.80 | O=C(Nc1cccc2cnccc12)C(Nc1ccccc1)c1ccc(Cl)cc1 (stereo not shown) [Cpd 39] | –
29 | 104 | 6.99 | O=C(Nc1cccc2cnccc12)C(c1ccc(C(F)(F)F)cc1)N1CCc2ccccc21 (stereo not shown) [Cpd 18, 2-(Indolin-1-yl)-N-(isoquinolin-5-yl)-2-(4-(trifluoromethyl)phenyl)acetamide] | –
30 | 104 | 7.05 | O=C(Nc1cccc2cnccc12)C(Nc1ccccc1Cl)c1ccc(C(F)(F)F)cc1 (stereo not shown) [Cpd 11] | –
31 | – | 7.77 | O=C(Nc1cccc2cnccc12)C(Nc1ccccc1)c1ccc(C(F)(F)F)cc1 (single isomer, unassigned) [Cpd 31, N-Isoquinolin-5-yl-2-phenylamino-2-(4-trifluoromethyl-phenyl)-acetamide] | % Inh @ 0.5 μM (canine TRPM8; 0.5 μM compound, HEK293 canine TRPM8, icilin challenge, 0.5 µM): 102.16%
32 | 99 | 6.56 | Cc1cccc(C)c1NC(C(=O)Nc1cccc2cnccc12)c1ccc(C(F)(F)F)cc1 (stereo not shown) [Cpd 25] | –
33 | 95.3 | 6.54 | COc1ccccc1NC(C(=O)Nc1cccc2cnccc12)c1ccc(C(F)(F)F)cc1 (stereo not shown) [Cpd 21] | –
34 | 104 | 7.42 | Cc1ccccc1NC(C(=O)Nc1cccc2cnccc12)c1ccc(C(F)(F)F)cc1 (stereo not shown) [Cpd 22] | –
35 | 99 | 7.14 | O=C(Nc1cccc2cnccc12)C(Nc1ccc(F)cc1)c1ccc(C(F)(F)F)cc1 (stereo not shown) [Cpd 35] | –
36 | 104 | 7.26 and 7.35 | O=C(Nc1cccc2cnccc12)C(Nc1ccccc1F)c1ccc(C(F)(F)F)cc1 (stereo not shown) [Cpd 24, 2-(2-Fluorophenylamino)-N-(isoquinolin-5-yl)-2-(4-(trifluoromethyl)phenyl)acetamide] | % Reversal @ 2 h (Sprague-Dawley rats): 28%
37 | – | 6.36 | CC(C)(C)c1ccc(C(Nc2ccccc2)C(=O)Nc2ccc3cnccc3c2)cc1 (stereo not shown) [Cpd 8] | inhibition at 1 µM (canine TRPM8; [1]): 97.5%
38 | – | 6.28 | CC(C)(C)c1ccc(C(Nc2ccccc2)C(=O)Nc2cccc3[nH]ccc23)cc1 (stereo not shown) [Cpd 7] | inhibition at 1 µM (canine TRPM8; [1]): 100%
39 | – | 6.52 | CN(c1ccccc1)C(C(=O)Nc1cccc2cnccc12)c1ccc(C(C)(C)C)cc1 (stereo not shown) [Cpd 3] | inhibition at 1 µM (canine TRPM8; [1]): 101%
